{"source": "patent EP0975351B1", "about": "“TREATMENT OF MULTIPLE SCLEROSIS THROUGH INGESTION OF COPOLYMER-1” (YEDA RESEARCH AND DEVELOPMENT CO. LTD., priority 1997, dated 1998)", "key": {"EAE": {"tested_on": "EAE", "experiment": "Suppression of EAE in rats by oral administration", "assay_type": "in vivo, Lewis rats", "method": "(§1) Rats were immunized with 25 µg of GPBP emulsified 1:1 in CFA containing 4 mg/ml. H37Ra. The emulsion at a total volume of 0.1 ml. was injected into the two hindfoot pads.\nAnimals were examined daily from day 10 post induction for signs of disease. EAE was scored as follows: 0-no disease, 1-limp tail, 2-hind limb paralysis, 3-paralysis of all four limbs, 4-moribund condition, 5-death.\n(§2) Rats were fed with 1 mg GPBP or glatiramer acetate dissolved in PBS by gastric intubation using a sterile feeding tube (Uno Plast, Denmark). Rats were fed 5 times (total dose of 5 mg) before disease induction at intervals of 2-3 days. EAE was induced two days after the last feeding. Control mice and rats were mock fed with PBS."}, "[1]": {"tested_on": "rat spleen cell suspension stimulated with GPBP", "experiment": "Proliferation assay of spleen cells in response to GPBP, fed rats", "assay_type": "cell-based", "settings": "spleen cells of orally fed rats, 10-11 days after EAE induction (Figure 1)", "method": "as §1, §2\n(§3) Proliferation Assay - The proliferation response of spleen cells was tested 10-11 days after EAE induction as described above. Cells from 3 animals in each group were pooled and cultured in triplicate (5x10^5 mouse cells and 2x10^5 rat cells) in microtiter plates with various antigen concentrations (GPBP) in a final volume of 0.2ml. Microtiter plates contained RPMI 1640 (available from Sigma Biochemicals, St. Louis, Missouri) culture medium supplemented with 1% autologous serum. After 72 hr. of incubation, cells were pulsed with 1 µCi {^3H}-thymidine for 18 hr and then harvested onto filter papers and radioactivity was counted."}, "spleen cells": {"tested_on": "spleen cells", "experiment": "Proliferation assay of spleen cells in response to GPBP, fed mice", "assay_type": "cell-based", "settings": "spleen cells of orally fed mice, 10-11 days after EAE induction (Figure 2)", "method": "Induction and Assessment of EAE - Mice were injected with 200 µg GPBP emulsified in an equal volume of complete Freund's adjuvant (CFA) containing 4 mg/ml mycobacterium tuberculosis (H37Ra) (Difco Lab, Detroit, Mich.). The emulsion at a total volume of 0.1 ml was injected into all four footpads. Immediately after and 24 hours later, pertussis toxin (250ng/mouse) (Sigma) was injected intravenously.\nInduction of Oral Tolerance - Mice were fed with 250 µg GPBP or glatiramer acetate dissolved in phosphate buffered saline (PBS) on days -7, -5, -3, 0, 2, 4 and 6 by gastric intubation with an 18-gauge stainless steel feeding needle (Thomas). EAE was induced on day 0.\nas §3"}, "CSF WBCs": {"tested_on": "CSF WBCs", "experiment": "Flow cytometry of cerebral spinal fluid (CSF) cells", "assay_type": "in vivo, Rhesus Monkeys", "method": "3 Rhesus monkeys were treated as follows: One monkey served as control and was fed with placebo capsules (containing 5mg glucose only). The second and third monkeys were fed with glatiramer acetate containing capsules at a dose of 1mg/feeding and 20mg/feeding, respectively. Animals were fed every other day for a total of 10 feedings: 5 times prior to disease induction (immunization on day 0) and then 5 times after immunization.\nDisease was induced on day 0 by an intradermal injection of 8mg bovine - MBP and 3 mg H37Ra M. tuberculosis in FCA into the hind footpads, total injected volume between 0.1 and 0.15 ml per footpad. The animals were followed for clinical manifestations of EAE, a variety of serum and CSF immunological markers and spinal cord and cranial MRI's.\nThe Epics C flow cytometer was used to analyze both peripheral blood lymphocytes (PBL) and cerebral spinal fluid (CSF) collected from each monkey. The red blood cells were lysed and the remaining white blood cells (WBCs) were washed and stained using standard methods with appropriate reagents. Tables 3 and 4 below show the data from staining PBL and CSF WBCs from the three animals in this Example."}, "[2]": {"tested_on": "experimental allergic encephalomyelitis (EAE)", "settings": "EAE induced by MSCH, MBP, PLP, MOG in a variety of species; cited from earlier work"}, "[3]": {"settings": "animal 18498, 20mg/feeding, day +27"}}}
{"substance": "glatiramer acetate", "values": [{"measurement": "Mean Onset", "setting": "EAE; Lewis rats fed 1 mg 5 times before EAE induction, PBS control 11.9", "value": 12.6, "unit": "days"}, {"measurement": "Mean Maximal Score±SD", "setting": "EAE; Lewis rats fed 1 mg 5 times before EAE induction, score 0-5, PBS control 1.8±0.5", "value": "0.78±0.45"}, {"measurement": "inhibition of incidence of EAE", "setting": "EAE; compared to PBS fed rats", "value": 54, "unit": "%"}, {"measurement": "inhibition of severity of EAE", "setting": "EAE; compared to PBS fed rats", "value": 57, "unit": "%"}, {"measurement": "proliferative responses to GPBP", "setting": "[1]", "value": "almost complete inhibition"}, {"measurement": "proliferative responses to GPBP", "setting": "spleen cells", "value": "almost complete inhibition"}, {"measurement": "Cells µl", "setting": "CSF WBCs; animal 18497, 1mg/feeding, day 0", "value": "few cells"}, {"measurement": "Cells µl", "setting": "CSF WBCs; animal 18498, 20mg/feeding, day 0", "value": "too few cells"}, {"measurement": "CD4+", "setting": "CSF WBCs; [3]", "value": 47}, {"measurement": "CD4+ CD45RA+", "setting": "CSF WBCs; [3]", "value": 8}, {"measurement": "Cells µl", "setting": "CSF WBCs; [3]", "value": 29.7}, {"measurement": "Cells µl", "setting": "CSF WBCs; animal 18498, 20mg/feeding, day +34", "value": "too few cells"}, {"measurement": "suppression of EAE", "setting": "[2]", "value": "suppress experimental allergic encephalomyelitis (EAE)"}]}
